Measurements taken from paper PMC12627933, “A First-In-Human Study of the SUMOylation Inhibitor Subasumstat in Patients with Advanced/Metastatic Solid Tumors or Relapsed/Refractory Hematologic Malignancies” (Cancer Research Communications, 2025).
Where “and” joins values, the source holds several entries; their conditions need not be identical. Equal entries are not always repeated.

Test: Safety: treatment-emergent adverse events (NCI CTCAE v5.0; CRS per ASTCT), phase I/II study NCT03648372
Format: in vivo
Method: This study comprised two parts: a phase I dose escalation and a phase II dose expansion (Fig. 1). In the dose-escalation phase, patients were enrolled to receive subasumstat intravenously as a 1-hour (±10 minutes) infusion on days 1, 4, 8, and 11 of a 21-day cycle (biweekly schedule). […] Dose escalation was based on cohort with an adaptive design using Bayesian logistic regression modeling with overdose control. The starting dose of subasumstat was based on Good Laboratory Practice animal toxicity studies and supported by the estimation of a minimum anticipated biologically effective level. A detailed description of dose-limiting toxicities (DLT) is presented in the Supplementary Methods.
The phase II dose-expansion portion enrolled patients to receive the recommended phase II dose (RP2D) determined in phase I, with each cohort assessed separately using an adaptive two-stage design for a single proportion (see Supplementary Methods). For stage 1, each cohort was analyzed when a prespecified number of patients were enrolled and had the potential to have at least one posttreatment scan [i.e., after the first disease assessment, 2 months from cycle 1 day 1 (C1D1)]. If the prespecified minimal response rate was not achieved in the first stage for a given cohort, that cohort would be closed to enrollment. […] The final analysis of the primary endpoints for each cohort would take place when all ongoing patients had the opportunity to complete the 6-month disease assessment. Across both phases, patients received subasumstat for up to 1 year or until confirmed disease progression, unacceptable toxicity, if any withdrawal criterion from the study was met, or if discontinuation of subasumstat occurred.
The occurrence of DLTs was assessed during cycle 1 (DLTs are described in the Supplementary Methods). Treatment-emergent adverse events (TEAE) were graded according to NCI Common Terminology Criteria for Adverse Events version 5.0, except for cytokine release syndrome (CRS), which was graded according to the American Society for Transplantation and Cellular Therapy Consensus Grading for CRS ([20]).
It was anticipated that approximately 70 DLT-evaluable patients would be enrolled for dose escalation. The safety analysis set included all patients who received at least one dose, even if incomplete, of subasumstat. […] The overall response rate (ORR) was defined as the proportion of patients who achieved complete response and partial response (PR) during the study. The disease control rate (DCR) was defined as the proportion of patients who achieved […] as per RECIST v1.1 for solid tumors or Lugano classification for lymphomas. […] Progression-free survival was summarized descriptively using the Kaplan–Meier method.

Structure (SMILES): Cc1sc(C(=O)c2cncnc2N[C@@H]2C[C@H](COS(N)(=O)=O)[C@@H](O)C2)cc1[C@@H]1NCCc2ccc(Cl)cc21 [subasumstat]
- TEAE: Constipation (Total (N = 109)): 16 (14.7) n (%)
- TEAE: Decreased appetite (Total (N = 109)): 31 (28.4) n (%)
- TEAE: Dehydration (Total (N = 109)): 12 (11.0) n (%)
- TEAE: Diarrhea (Total (N = 109)): 39 (35.8) n (%)
- TEAE: Dyspnea (Total (N = 109)): 26 (23.9) n (%)
- TEAE: Fatigue (Total (N = 109)): 51 (46.8) n (%)
- TEAE: Headache (Total (N = 109)): 37 (33.9) n (%)
- TEAE: Hypophosphatemia (Total (N = 109)): 11 (10.1) n (%)
- TEAE: Insomnia (Total (N = 109)): 13 (11.9) n (%)
- TEAE: Nausea (Total (N = 109)): 45 (41.3) n (%)
- TEAE: Peripheral edema (Total (N = 109)): 17 (15.6) n (%)
- TEAE: Pleural effusion (Total (N = 109)): 12 (11.0) n (%)
- TEAE: Pyrexia (Total (N = 109)): 39 (35.8) n (%)
- TEAE: Stomatitis (Total (N = 109)): 11 (10.1) n (%)
- TEAE: Vomiting (Total (N = 109)): 29 (26.6) n (%)
- TEAEs (Total (N = 109)): 105 (96.3) n (%)
- TEAEs leading to discontinuation (Total (N = 109)): 12 (11.0) n (%)
- TEAEs leading to discontinuation related to subasumstat (Total (N = 109)): 4 (3.7) n (%)
- TEAEs related to subasumstat (Total (N = 109)): 87 (79.8) n (%)
- Grade ≥3 subasumstat-related TEAE: Anemia (Total (n = 109)): 4 (3.7) n (%)
- Grade ≥3 subasumstat-related TEAE: Aspartate aminotransferase increased (Total (n = 109)): 2 (1.8) n (%)
- Grade ≥3 subasumstat-related TEAE: Hypokalemia (Total (n = 109)): 2 (1.8) n (%)
- Grade ≥3 subasumstat-related TEAE: Lymphocyte count decreased (Total (n = 109)): 4 (3.7) n (%)
- Grade ≥3 subasumstat-related TEAE: Muscular weakness (Total (n = 109)): 2 (1.8) n (%)
- Grade ≥3 subasumstat-related TEAE: Neutropenia (Total (n = 109)): 4 (3.7) n (%)
- Grade ≥3 subasumstat-related TEAE: Platelet count increased (Total (n = 109)): 3 (2.8) n (%)
- Grade ≥3 subasumstat-related TEAE: Pneumonitis (Total (n = 109)): 2 (1.8) n (%)
- Grade ≥3 subasumstat-related TEAE: Thrombocytopenia (Total (n = 109)): 2 (1.8) n (%)
- Patients with at least one grade ≥3 subasumstat-related TEAE (Total (n = 109)): 29 (26.6) n (%)
- Subasumstat-related TEAE: Anemia (Total (n = 109)): 8 (7.3) n (%)
- Subasumstat-related TEAE: CRS (Total (n = 109)): 12 (11.0) n (%)
- Subasumstat-related TEAE: Chills (Total (n = 109)): 23 (21.1) n (%)
- Subasumstat-related TEAE: Decreased appetite (Total (n = 109)): 13 (11.9) n (%)
- Subasumstat-related TEAE: Diarrhea (Total (n = 109)): 21 (19.3) n (%)
- Subasumstat-related TEAE: Dyspnea (Total (n = 109)): 6 (5.5) n (%)
- Subasumstat-related TEAE: Fatigue (Total (n = 109)): 34 (31.2) n (%)
- Subasumstat-related TEAE: Headache (Total (n = 109)): 26 (23.9) n (%)
- Subasumstat-related TEAE: Hypokalemia (Total (n = 109)): 7 (6.4) n (%)
- Subasumstat-related TEAE: IRR (Total (n = 109)): 6 (5.5) n (%)
- Subasumstat-related TEAE: Myalgia (Total (n = 109)): 8 (7.3) n (%)
- Subasumstat-related TEAE: Nausea (Total (n = 109)): 33 (30.3) n (%)
- Subasumstat-related TEAE: Pyrexia (Total (n = 109)): 32 (29.4) n (%)
- Subasumstat-related TEAE: Vomiting (Total (n = 109)): 14 (12.8) n (%)
- Severity of CRS (all incidences, most nonserious): grade 1 or 2
- Discontinuation of subasumstat due to TEAEs (all patients (N = 109)): 11%
- Grade ≥3 TEAE abdominal pain (all patients (N = 109)): 5.5%
- Grade ≥3 TEAE anemia (all patients (N = 109)): 12.8% and 13%
- Grade ≥3 TEAE hypokalemia (all patients (N = 109)): 6.4%
- Grade ≥3 TEAEs (all patients (N = 109)): 60.6%
- On-study deaths (all patients (N = 109)): 11.0%
- On-study deaths related to subasumstat (all patients (N = 109)): none
- Subasumstat-related TEAE fatigue (all patients (N = 109)): 31.2%
- Subasumstat-related TEAE nausea (all patients (N = 109)): 30.3%
- Subasumstat-related TEAE pyrexia (all patients (N = 109)): 29.4%
- Subasumstat-related grade ≥3 TEAEs (all patients (N = 109)): 26.6%
- Subasumstat-related grade ≥3 anemia (all patients (N = 109)): 3.7%
- Subasumstat-related grade ≥3 decreased lymphocyte blood cell count (all patients (N = 109)): 3.7%
- Subasumstat-related grade ≥3 decreased platelet count (all patients (N = 109)): 2.8%
- Subasumstat-related grade ≥3 neutropenia (all patients (N = 109)): 3.7%
- TEAE diarrhea (all patients (N = 109)): 36% and 35.8%
- TEAE fatigue (all patients (N = 109)): 47% and 46.8%
- TEAE headache (all patients (N = 109)): 33.9%
- TEAE nausea (all patients (N = 109)): 41% and 41.3%
- TEAE pyrexia (all patients (N = 109)): 36% and 35.8%
- TEAEs related to subasumstat (all patients (N = 109)): 79.8%
- CRS (all patients (N = 109), 12 patients, all related to subasumstat): 11%
- Infusion-related reactions (IRR) (all patients (N = 109), seven patients): 6.4% and 6%
- Severity of IRR (all seven patients with IRR): grade 1 or 2
- Dose from which CRS was observed (in vivo): ≥ 60 mg
- IRR deemed related to subasumstat (of seven patients with IRR): six
